Laboratory results as given in ChEMBL document CHEMBL1201862, “PubChem BioAssay data set” (2004).
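Assay format: 96-well plates, 48-hour exposure. At the GI50, growth is halved.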 The source made the active and inactive calls. No stated cut-off is given here; in the data, active = GI50 up to about 1.1 µM and inactive = higher.

Experiments:
Assay in all cases: NCI tumour cell line growth inhibition, 48 h
[1] = test system: A549
[2] = test system: HCC 2998
[3] = test system: HCT-116
[4] = test system: HT-29
[5] = test system: IGROV-1
[6] = test system: K562
[7] = test system: Malme-3M
[8] = test system: OVCAR-4
[9] = test system: RPMI-8226
[10] = test system: SF-295
[11] = test system: SK-MEL-28
[12] = test system: SK-MEL-2
[13] = test system: SN12C
[14] = test system: SNB-19
[15] = test system: SR
[16] = test system: SW-620
[17] = test system: UO-31

Measured: GI50

C=CCCCC(C#N)(c1ccccc1)N1CCCC1 (stereo not given)
inactive: [1] > 100 µM | [2] > 100 µM | [3] > 100 µM | [4] > 100 µM | [5] > 100 µM | [6] > 100 µM | [7] > 100 µM | [8] > 100 µM | [9] > 100 µM | [10] > 100 µM | [11] > 100 µM | [12] > 100 µM | [13] > 100 µM | [14] > 100 µM | [15] > 100 µM | [16] > 100 µM | [17] > 100 µM

N#CC(C#N)=C1NC(=O)CC(=O)N1
inactive: [1] > 100 µM | [2] > 100 µM | [3] > 100 µM | [4] > 100 µM | [5] > 100 µM | [6] > 100 µM | [7] > 100 µM | [8] > 100 µM | [9] > 100 µM | [10] > 100 µM | [13] > 100 µM | [14] > 100 µM | [15] > 100 µM | [16] > 100 µM | [17] > 100 µM

Oc1cccc2c1NC1=C(CCC/C1=C\c1ccccc1)C2
inactive: [1] > 100 µM | [2] 49.3 µM | [3] 82.6 µM | [4] 49.8 µM | [5] > 100 µM | [6] 59.6 µM | [7] > 100 µM | [9] 52 µM | [10] 71.8 µM | [11] > 100 µM | [13] > 10 µM | [14] > 100 µM | [15] 50.1 µM | [16] > 100 µM | [17] 51.2 µM

Cc1ccc(NC(=O)C2C3CCC(O3)C2C(=O)O)cc1 (stereo not given)
inactive: [1] > 76.2 µM | [2] 99.1 µM | [3] > 39 µM | [4] > 45 µM | [5] > 100 µM | [6] > 48.2 µM | [7] > 100 µM | [8] > 100 µM | [9] 39.6 µM | [10] > 95.9 µM | [11] > 75 µM | [12] 64.9 µM | [13] > 48.8 µM | [14] > 100 µM | [15] 15.7 µM | [16] > 22.3 µM | [17] > 100 µM

COc1ccc(/C=C/C(C(=O)O)C(=O)O)cc1
inactive: [1] > 100 µM | [2] > 100 µM | [3] > 100 µM | [4] 78.9 µM | [5] > 100 µM | [6] 32.4 µM | [7] 69.8 µM | [8] 35.2 µM | [9] 32.8 µM | [10] > 100 µM | [11] 22.5 µM | [12] > 100 µM | [13] 51.3 µM | [14] 70.5 µM | [15] 34.8 µM | [16] 31.5 µM | [17] 64.3 µM

Cc1cccc(C)c1NC(=O)CCCC(=O)C(C#N)c1ccc(Cl)cc1 (stereo not given)
inactive: [1] > 100 µM | [2] > 100 µM | [3] > 100 µM | [4] > 100 µM | [5] > 100 µM | [6] > 100 µM | [7] > 100 µM | [8] > 100 µM | [9] > 100 µM | [10] > 100 µM | [11] > 100 µM | [12] > 100 µM | [13] > 100 µM | [14] > 100 µM | [15] > 100 µM | [16] > 100 µM | [17] > 100 µM

CC(=O)N1C(=O)C(=O)c2cc(Cl)ccc21
inactive: [1] > 100 µM | [2] > 100 µM | [4] > 100 µM | [5] > 100 µM | [6] > 100 µM | [7] > 100 µM | [8] > 100 µM | [9] > 100 µM | [10] > 100 µM | [11] > 100 µM | [13] > 100 µM | [14] > 100 µM | [15] > 100 µM | [16] > 100 µM | [17] > 100 µM

C[Si]12OCCCN(CCO1)CCO2
inactive: [1] > 100 µM | [2] > 100 µM | [3] > 100 µM | [4] > 100 µM | [5] > 100 µM | [6] > 100 µM | [7] > 100 µM | [9] > 100 µM | [10] > 100 µM | [11] > 100 µM | [12] > 100 µM | [13] > 100 µM | [14] > 100 µM | [15] > 100 µM | [16] > 100 µM | [17] > 100 µM

N#Cc1ccc(Nc2cnc3ccc(N)cc3n2)cc1
inactive: [1] > 100 µM | [2] > 100 µM | [3] > 100 µM | [4] > 100 µM | [6] > 100 µM | [7] > 100 µM | [8] > 100 µM | [9] > 100 µM | [10] > 100 µM | [11] > 100 µM | [12] > 100 µM | [13] > 100 µM | [14] > 100 µM | [15] 91.4 µM | [16] > 100 µM | [17] > 100 µM

COc1c(OC)c(N)c2cc(C)c(=O)c(C)cc2c1N
inactive: [1] > 100 µM | [2] > 100 µM | [3] 97.1 µM | [4] > 100 µM | [5] > 100 µM | [6] > 100 µM | [7] > 100 µM | [8] > 100 µM | [9] > 100 µM | [10] > 100 µM | [12] > 100 µM | [13] > 100 µM | [14] > 100 µM | [15] 12.4 µM | [16] 18.1 µM | [17] > 100 µM

CC(=O)O[C@@H]1CC[C@@]2(C)C(=O)C34C[C@@]5(C)C([C@@H](C)CCCC(C)C)CCC5(C)[C@](O)(O3)C(=O)[C@H]4C2C1(C)C (stereo not given in full)
inactive: [1] 13.3 µM | [2] 11.3 µM | [3] 14 µM | [4] 13 µM | [5] 15.4 µM | [6] 9.42 µM | [7] 18.5 µM | [8] 13.2 µM | [9] 13.4 µM | [10] 16.3 µM | [11] 18.9 µM | [12] 19.8 µM | [13] 13.2 µM | [14] 16.6 µM | [15] 16 µM | [16] 11.5 µM | [17] 13.3 µM

CCCCCC(=O)N[C@H]1CCc2cc(O)c(O)c(O)c2-c2ccc(SC)c(=O)cc21
inactive: [1] 36.7 µM | [2] 32.9 µM | [3] 18.8 µM | [4] 32.7 µM | [5] 38.4 µM | [6] 6.47 µM | [7] > 80.5 µM | [8] 18.1 µM | [9] 70.5 µM | [10] 23.4 µM | [11] 48.3 µM | [12] 33 µM | [13] 20.3 µM | [14] 43.3 µM | [15] 22.8 µM | [16] 17.8 µM | [17] > 77.6 µM
